The values that follow come from patent US11365199B2, “Pyrazole compounds as modulators of FSHR and uses thereof” (Merck Patent GmbH, priority 2013, dated 2022).

Structures are written as SMILES. pEC50: −log10 of the molar value. Bounds are passed on as bounds.

Assay [1] addresses T1, follicle-stimulating hormone (FSH) receptor (Rattus norvegicus, UniProt P20395).
T1 construct: endogenous in cells; host or cells: primary rat granulosa cells
T1 sequence (P20395 18-692): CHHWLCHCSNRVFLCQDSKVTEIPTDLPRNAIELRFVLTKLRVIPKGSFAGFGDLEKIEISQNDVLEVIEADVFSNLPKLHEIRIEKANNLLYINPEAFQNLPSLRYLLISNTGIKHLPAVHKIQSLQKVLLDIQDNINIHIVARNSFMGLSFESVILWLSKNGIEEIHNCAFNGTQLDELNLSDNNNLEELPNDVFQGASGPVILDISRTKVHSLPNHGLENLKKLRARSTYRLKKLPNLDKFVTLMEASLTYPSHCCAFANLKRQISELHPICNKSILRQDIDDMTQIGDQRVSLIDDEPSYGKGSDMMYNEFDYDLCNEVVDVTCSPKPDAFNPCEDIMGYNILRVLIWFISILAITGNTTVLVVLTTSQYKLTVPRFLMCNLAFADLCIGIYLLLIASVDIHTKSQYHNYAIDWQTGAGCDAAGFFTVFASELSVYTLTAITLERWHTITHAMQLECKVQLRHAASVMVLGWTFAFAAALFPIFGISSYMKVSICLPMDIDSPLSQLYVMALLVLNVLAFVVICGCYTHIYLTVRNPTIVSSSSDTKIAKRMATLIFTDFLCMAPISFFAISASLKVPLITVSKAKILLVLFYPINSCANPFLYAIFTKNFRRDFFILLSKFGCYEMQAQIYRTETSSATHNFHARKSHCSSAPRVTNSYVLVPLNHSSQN
The assay is described as follows: Rat granulosa EC50 FSH (Assay B). The assay is classed as cell-based. The following applies: for pEC50: rat granulosa cells, read-out: Assay B: Rat granulosa EC50 FSH. As to the method:
Rat Granulosa EC50 FSH (Assay B)
The assay was performed pursuant to the teaching of Yanofsky et al. (2006) Allosteric activation of the follicle-stimulating hormone (FSH) receptor by selective, nonpeptide agonists (JBC 281(19): 13226-13233, which is incorporated by reference in the disclosure of the invention).

The target in a further assay is T2, FSHR (Homo sapiens, UniProt P23945).
T2 construct: expressed in transfected cells; host or cells: CHO (Cho-FSHR-LUC-1-1-43)
T2 sequence (P23945 18-695): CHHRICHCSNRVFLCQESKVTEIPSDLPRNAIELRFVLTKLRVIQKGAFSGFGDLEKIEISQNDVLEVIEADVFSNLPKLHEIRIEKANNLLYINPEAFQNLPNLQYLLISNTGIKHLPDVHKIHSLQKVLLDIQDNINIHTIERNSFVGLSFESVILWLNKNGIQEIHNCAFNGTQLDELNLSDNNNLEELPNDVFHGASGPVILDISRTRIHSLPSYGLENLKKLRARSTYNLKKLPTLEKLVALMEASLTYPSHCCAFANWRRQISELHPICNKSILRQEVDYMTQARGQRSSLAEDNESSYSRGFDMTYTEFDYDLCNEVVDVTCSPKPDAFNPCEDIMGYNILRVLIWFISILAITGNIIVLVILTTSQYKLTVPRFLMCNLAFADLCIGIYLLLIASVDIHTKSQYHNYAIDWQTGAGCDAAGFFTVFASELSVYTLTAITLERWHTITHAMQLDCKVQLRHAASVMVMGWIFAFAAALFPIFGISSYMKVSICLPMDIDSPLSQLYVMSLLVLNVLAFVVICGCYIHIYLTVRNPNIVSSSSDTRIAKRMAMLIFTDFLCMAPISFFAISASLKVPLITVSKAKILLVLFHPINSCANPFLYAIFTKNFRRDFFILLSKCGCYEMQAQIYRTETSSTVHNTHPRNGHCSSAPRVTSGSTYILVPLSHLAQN
In words: EC50 of cyclic AMP production in CHO FSHR cells + EC20 FSH (Assay A). In kind it is cell-based. The note with it: CHO FSHR cells + EC20 FSH, cAMP HTRF; read-out: Assay A: EC50 of cyclic AMP production. The method in brief:
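cAMP HTRF read-out (665 nm/620 nm ratio) after 1 h at 37° C of Cho-FSHR-LUC cells treated with serially diluted test compound plus EC20 FSH ([…]) and IBMX (final 200 μM). Responses given as percent of maximal FSH-standard effect.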
A general note: TR-FRET usually uses a lanthanide donor and a delayed reading to cut background.

In general, pEC50 refers to the negative decadic logarithm of the EC50, by convention in mol/L. In the case of `COc1cc2c(cc1-c1cnn(CCN3CCOCC3)c1)-c1c(c(C(=O)N3CCOCC3(C)C)nn1-c1ccsc1)CO2` [Compound 202, (3,3-Dimethyl-morpholin-4-yl)-{7-methoxy-8-[1-(2-morpholin-4-yl-ethyl)-1H-pyrazol-4-yl]-1-thiophen-3-yl-1,4-dihydro-chromeno[4,3-c]pyrazol-3-yl}-methanone], the pEC50 (in assay [1]; at FSHR) was 6.00 to 7.00 in each case.

As to `[2H]C([2H])([2H])OCC1(C)CCCN1C(=O)c1nn(-c2ccsc2)c2c1COc1cc(OC)c(-c3ccn(C)n3)cc1-2` (centres unmarked) [Compound 182], the pEC50 (in assay [1]; at FSHR) was greater than 7.00 throughout.

For the molecule `COc1cc2c(cc1-c1ccn(C)n1)-c1c(c(C(=O)N3CCOCC3C)nn1-c1ccsc1)CO2` (centres unmarked) [Compound 218], the pEC50 in assay [1] was 6.00 to 7.00; on FSHR, greater than 7.00.

As for `COc1cc2c(cc1-c1cccn1C)-c1c(c(C(=O)N3CCOCC3(C)C)nn1-c1ccsc1)CO2` [Compound 125, (3,3-Dimethyl-morpholin-4-yl)-[7-methoxy-8-(1-methyl-1H-pyrrol-2-yl)-1-thiophen-3-yl-1,4-dihydro-chromeno[4,3-c]pyrazol-3-yl]-methanone], the negative logarithm of the EC50 (pEC50) in assay [1] was 5.30 to 6.00; at FSHR, greater than 7.00.

For `COc1cc2c(cc1-c1ccn(C)c1)-c1c(c(C(=O)N3CCN(C)CC3(C)C)nn1-c1ccsc1)CO2` [Compound 160, [7-Methoxy-8-(1-methyl-1H-pyrrol-3-yl)-1-thiophen-3-yl-1,4-dihydro-chromeno[4,3-c]pyrazol-3-yl]-(2,2,4-trimethyl-piperazin-1-yl)-methanone], the pEC50 (in assay [1]; on FSHR) was greater than 7.00 each time.

As to `COc1cc2c(cc1S(=O)(=O)C(C)C)-c1c(c(C(=O)N(C)C(C)(C)C)nn1-c1ccsc1)CO2` [Compound 79, 7-methoxy-8-(propane-2-sulfonyl)-1-thiophen-3-yl-1,4-dihydro-chromeno[4,3-c]pyrazole-3-carboxylic Acid tert-butyl-methyl-amide], the figures for the pEC50 (in assay [1]; at FSHR) were less than 5.30 and greater than 7.00, respectively.

Regarding `COc1cc2c(cc1-c1ccn(C)n1)-c1c(c(C(=O)N3CCOCC3(C)C)nn1-c1ccsc1)CO2` [Compound 94, (3,3-Dimethyl-morpholin-4-yl)-[7-methoxy-8-(1-methyl-1H-pyrazol-3-yl)-1-thiophen-3-yl-1,4-dihydro-chromeno[4,3-c]pyrazol-3-yl]-methanone], the pEC50 was 6.00 to 7.00 in assay [1] and greater than 7.00 at FSHR.

With `[2H]C([2H])([2H])OC1(CN(C(=O)c2nn(-c3ccsc3)c3c2COc2cc(OC)c(-c4ccn(C)n4)cc2-3)C([2H])([2H])[2H])COC1` [Compound 167], the negative-log EC50 (pEC50) (in assay [1]; on FSHR) was 6.00 to 7.00 throughout.

On to `[2H]C([2H])([2H])OC1(CN(C(=O)c2nn(-c3ccsc3)c3c2COc2cc(OC)c(-c4ccn(C)c4)cc2-3)C([2H])([2H])[2H])COC1` [Compound 168], for which the values for the pEC50 (in assay [1]; at FSHR) were 6.00 to 7.00 and greater than 7.00, respectively.

On to `COc1cc2c(cc1C#N)-c1c(c(C(=O)N(C)C(C)(C)C)nn1-c1ccsc1)CO2` [Compound 12, 8-Cyano-7-methoxy-1-thiophen-3-yl-1,4-dihydro-chromeno[4,3-c]pyrazole-3-carboxylic Acid tert-butyl-methyl-amide], for which the pEC50 in assay [1] was 5.30 to 6.00; at FSHR, greater than 7.00.

Take `COc1cc2c(cc1CNC(C)=O)-c1c(c(C(=O)N3CCOCC3(C)C)nn1-c1ccsc1)CO2` [Compound 175, N-[3-(3,3-Dimethyl-morpholine-4-carbonyl)-7-methoxy-1-thiophen-3-yl-1,4-dihydro-chromeno[4,3-c]pyrazol-8-ylmethyl]-acetamide]: the negative logarithm of the EC50 (pEC50) is less than 5.30 in assay [1] and 6.00 to 7.00 at FSHR.

With `COc1cc2c(cc1-c1ccn(C)n1)-c1c(c(C(=O)N3CCN(C)CC3(C)C)nn1-c1ccsc1)CO2` [Compound 159, [7-Methoxy-8-(1-methyl-1H-pyrazol-3-yl)-1-thiophen-3-yl-1,4-dihydro-chromeno[4,3-c]pyrazol-3-yl]-(2,2,4-trimethyl-piperazin-1-yl)-methanone], the pEC50 (in assay [1]; at FSHR) was greater than 7.00 in each case.

With `[2H]C([2H])([2H])OCC1(N(C(=O)c2nn(-c3ccsc3)c3c2COc2cc(OC)c(CC(C)C)cc2-3)C([2H])([2H])[2H])COC1` [Compound 162], the figures for the pEC50 (in assay [1]; on FSHR) were 6.00 to 7.00 and greater than 7.00, respectively.

For the molecule `COc1cc2c(cc1C=C(C)C)-c1c(c(C(=O)NCCNC(C)=O)nn1-c1ccsc1)CO2` [Compound 7, 7-Methoxy-8-(2-methyl-propenyl)-1-thiophen-3-yl-1,4-dihydro-chromeno[4,3-c]pyrazole-3-carboxylic Acid (2-acetylamino-ethyl)-amide], the Emax at 6 µM in assay [1] (@ 6 μM, read-out: Assay B: percental effect (response) relative to the maximum response of the FSH standard) was 43.5%. Besides, the pEC50 on FSHR was 5.30 to 6.00.

Regarding `COc1cc2c(cc1-c1ccn(C)c1)-c1c(c(C(=O)N3CCNCC3(C)C)nn1-c1ccsc1)CO2` [Compound 170], the pEC50 is 5.30 to 6.00 in assay [1] and greater than 7.00 on FSHR.

`COc1cc2c(cc1-c1c[nH]nc1C)-c1c(c(C(=O)N3CCOCC3(C)C)nn1-c1ccsc1)CO2` [Compound 95, (3,3-Dimethyl-morpholin-4-yl)-[7-methoxy-8-(3-methyl-1H-pyrazol-4-yl)-1-thiophen-3-yl-1,4-dihydro-chromeno[4,3-c]pyrazol-3-yl]-methanone]: the negative-log EC50 (pEC50) in assay [1] was 6.00 to 7.00; at FSHR it was greater than 7.00.

In the case of `COc1cc2c(cc1C1=CCOC1)-c1c(c(C(=O)N(C)C(C)(C)C)nn1-c1ccsc1)CO2` [Compound 151, 8-(2,5-Dihydro-furan-3-yl)-7-methoxy-1-thiophen-3-yl-1,4-dihydro-chromeno[4,3-c]pyrazole-3-carboxylic acid tert-butyl-methyl-amide], the pEC50 was 6.00 to 7.00 in assay [1] and greater than 7.00 at FSHR.

Take `[2H]C([2H])([2H])OCC1(N(C(=O)c2nn(-c3ccsc3)c3c2COc2cc(OC)c(-c4ccn(C)n4)cc2-3)C([2H])([2H])[2H])COC1` [Compound 114]: the pEC50 was 5.30 to 6.00 in assay [1] and greater than 7.00 at FSHR.

Consider `COc1cc2c(cc1-c1ccn(C)c1)-c1c(c(C(=O)NC3(C)COC3)nn1-c1ccsc1)CO2` [Compound 99, 7-Methoxy-8-(1-methyl-1H-pyrrol-3-yl)-1-thiophen-3-yl-1,4-dihydro-chromeno[4,3-c]pyrazole-3-carboxylic acid (3-methyl-oxetan-3-yl)-amide], for which the pEC50 (in assay [1]; at FSHR) was 6.00 to 7.00 in each case.

For the molecule `COc1cc2c(cc1C=C(C)C)-c1c(c(C(=O)N(C)CCN3CCOC3=O)nn1-c1ccsc1)CO2` [Compound 23, 7-Methoxy-8-(2-methyl-propenyl)-1-thiophen-3-yl-1,4-dihydro-chromeno[4,3-c]pyrazole-3-carboxylic Acid methyl-[2-(2-oxo-oxazolidin-3-yl)-ethyl]-amide], the pEC50 (in assay [1]; on FSHR) was greater than 7.00 in each case.

As to `[2H]C([2H])([2H])OCC1(C)CCCN1C(=O)c1nn(-c2ccsc2)c2c1COc1cc(OC)c(-c3ccn(C)c3)cc1-2` (centres unmarked) [Compound 184], the pEC50 (in assay [1]; at FSHR) was greater than 7.00 throughout.

For `COc1cc2c(cc1-c1cnn(CC3OCCO3)c1)-c1c(c(C(=O)N3CCOCC3(C)C)nn1-c1ccsc1)CO2` [Compound 209, (3,3-Dimethyl-morpholin-4-yl)-[8-(1-[1,3]dioxolan-2-ylmethyl-1H-pyrazol-4-yl)-7-methoxy-1-thiophen-3-yl-1,4-dihydro-chromeno[4,3-c]pyrazol-3-yl]-methanone], the negative logarithm of the EC50 (pEC50) (in assay [1]; at FSHR) was greater than 7.00 throughout.
